Measured values: ChEMBL document CHEMBL1150539, “A novel non nucleoside compound with high in vitro anti-HIV-1 activity. Absolute stereochemistry determination” (Bioorg Med Chem Lett, 1995)
Values joined by “and” are separate entries in the source; they are usually repeats but may differ in a detail not shown here. Equal values may be shown once.

Experiments:
Type in all cases: functional, cell-based, Homo sapiens
[1] = tested on: CEM-SS; assay: Effective concentration required for 50% inhibition of viral replication by syncytium-forming assay carried out in CEM-SS cells
[2] = tested on: CEM-SS; assay: Effective concentration required for 50% inhibition of viral replication by XTT cytoprotection assay carried out in CEM-SS cells
[3] = tested on: CEM-SS; assay: Compound was evaluated for inhibitory activity against cell growth

Compound | EC50 ([1]; Homo sapiens, CEM-SS) | EC50 ([2]; Homo sapiens, CEM-SS) | IC50 ([3]; cem-ss) | EC50 ([1]; cem-ss) | EC50 ([2]; cem-ss) | IC50 ([3]; Homo sapiens, CEM-SS)
CC1(C)CCC[C@]2(C)[C@@H](c3ccoc3)C(=O)[C@@H]3O[C@]312 | 15.4 µM | 42.1 µM | 48.3 µM and 154 µM |  |  | 
CC1(C)CCC[C@@]2(C)[C@H](c3ccoc3)C(=O)[C@H]3O[C@@]312 |  |  | 42.1 µM and 135 µM | 0.6 µM | 0.8 µM | 
CC1(C)CCC[C@@]2(C)[C@H](c3ccoc3)C(=O)[C@H]3O[C@@]312 (racemic) |  | 1.3 µM | 45.7 µM and 53.8 µM | 1.7 µM |  | 
Cc1cn([C@H]2C[C@H](N=[N+]=[N-])[C@@H](CO)O2)c(=O)[nH]c1=O [ZIDOVUDINE] | 0.02 µM | 0.3 µM |  |  |  | > 1890 µM
